Experimental data reported in BindingDB's records for doi:10.1002/cbic.201000413 (The University of Edinburgh, 2011).
Values joined by “and” are separate entries in the source; they are usually repeats but may differ in a detail not shown here. Equal values may be shown once.

Assays:
[1] = molecular target: T1, Peptidyl-prolyl cis-trans isomerase A (Homo sapiens, UniProt P62937); experiment: PPIase Assay
Text: The promising ligand from the results obtained from ESI-MS assay are subjected to PPIase in vitro assay. The PPIase assay assesses the abil9ity of ligands to inhibit the PPIase activity of CypA.

[2] = molecular target: T1, Peptidyl-prolyl cis-trans isomerase A; experiment: Fluorescence Assay
Text: The promising ligand from the results obtained from ESI-MS assay are subjected to fluorescence in vitro assay. The fluorescence assay takes advantage of the presence of a single tryptophan residue (Trp121) located close to the active site of CypA.

[3] = molecular target: T1, Peptidyl-prolyl cis-trans isomerase A; experiment: ESI-MS Assay
Text: Electrospray mass spectrometry assay is a immunophilin-ligand binding assay which allows us to rapidly probe the affinity of potential inhibitors for CypA which rely on the use of soft-ESI conditions to preserve noncovalent interactions between protein and ligand.

T1 sequence (P62937 whole entry): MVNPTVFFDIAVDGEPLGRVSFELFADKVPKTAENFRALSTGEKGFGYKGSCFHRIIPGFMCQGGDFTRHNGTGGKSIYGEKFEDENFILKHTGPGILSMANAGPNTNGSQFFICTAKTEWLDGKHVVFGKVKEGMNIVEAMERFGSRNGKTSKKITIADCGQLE

SMILES | Ki [1] [µM] | Kd [2] | Kd [3] [µM]
COC(=O)[C@H](CCCCNC(=O)OCc1ccccc1)C1C(=O)CC2C1=CC(=O)CC2(C)C (some centres undefined) [Cyclophilin Inhibitor, 3a] | > 100 | 22.8 µM | 128
COC(=O)[C@H](CCCCNS(=O)(=O)c1cccc2c(N(C)C)cccc12)C1C(=O)CC2C1=CC(=O)CC2(C)C (some centres undefined) [Cyclophilin Inhibitor, 3e] | 207 | 21.9 µM | 113
COC(=O)[C@H](CCCCNS(=O)(=O)c1cccc2c(N(C)C)cccc12)C1C(=O)C[C@@H]2C1=CC(=O)CC2(C)C (some centres undefined) [Cyclophilin Inhibitor, 3f] |  |  | 133
COC(=O)[C@H](CCCCNC(C)=O)C1C(=O)CC2C1=CC(=O)CC2(C)C (some centres undefined) [Cyclophilin Inhibitor, 3d] | > 100 |  | 85.1
COC(=O)[C@H](CCCN=C(N)N[N+](=O)[O-])C1C(=O)CC2C1=CC(=O)CC2(C)C (some centres undefined) [Cyclophilin Inhibitor, 3c] | > 100 | 29.6 µM | 31.9
COC(=O)[C@H](CCCCN)C1C(=O)CC2C1=CC(=O)CC2(C)C (some centres undefined) [Cyclophilin Inhibitor, 15] |  | 15.9 µM and > 50 µM | 72.6
